# Reference: ChEMBL document CHEMBL4130433, “Acridone-pyrimidine hybrids- design, synthesis, cytotoxicity studies in resistant and sensitive cancer cells and molecular docking studies” (Eur J Med Chem, 2017)
# What was measured:
# [1] = tested on: MDA-MB-231; assay: Antiproliferative activity against human MDA-MB-231 cells after 72 hrs by MTT assay; assay type: functional, cell-based; details: MDA-MB-231, 72 h
# [2] = tested on: HeLa; assay: Antiproliferative activity against human HeLa cells after 72 hrs by MTT assay; assay type: functional, cell-based
# [3] = tested on: 2008; assay: Antiproliferative activity against resistant human 2008 cells clone 4 harboring MRP1 after 72 hrs by MTT assay; assay type: functional, cell-based; details: Homo sapiens, 2008, 72 h
# [4] = tested on: SW1573; assay: Antiproliferative activity against resistant human SW1573 2R 160 cells harboring P-gp after 72 hrs by MTT assay; assay type: functional, cell-based; details: SW1573, 72 h
# [5] = Antiproliferative activity against human MCF7/MX cells after 72 hrs by MTT assay; assay type: functional, cell-based
# [6] = tested on: Rattus norvegicus; assay: Toxicity in overnight fasted albino Wistar rat assessed as body weight at 2000 mg/kg, po administered as single dose followed by fasting for 3 hrs measured on day 1 post dose (reference value: 162 +/- 8 g); assay type: organism-based; details: in vivo
# [7] = tested on: Rattus norvegicus; assay: Toxicity in overnight fasted albino Wistar rat assessed as body weight at 300 mg/kg, po administered as single dose followed by fasting for 3 hrs measured on day 2 post dose (reference value: 165 +/- 12 g); assay type: organism-based; details: in vivo
# [8] = tested on: Rattus norvegicus; assay: Toxicity in overnight fasted albino Wistar rat assessed as body weight at 5000 mg/kg, po administered as single dose followed by fasting for 3 hrs measured on day 2 post dose (reference value: 165 +/- 12 g); assay type: organism-based; details: in vivo
# [9] = tested on: Rattus norvegicus; assay: Toxicity in overnight fasted albino Wistar rat assessed as body weight at 2000 mg/kg, po administered as single dose followed by fasting for 3 hrs measured on day 3 post dose (reference value: 166 +/- 10 g); assay type: organism-based; details: in vivo
# [10] = tested on: Rattus norvegicus; assay: Toxicity in overnight fasted albino Wistar rat assessed as body weight at 2000 mg/kg, po administered as single dose followed by fasting for 3 hrs measured on day 4 post dose (reference value: 169 +/- 5 g); assay type: organism-based; details: in vivo
# [11] = tested on: Rattus norvegicus; assay: Toxicity in overnight fasted albino Wistar rat assessed as body weight at 300 mg/kg, po administered as single dose followed by fasting for 3 hrs measured on day 6 post dose (reference value: 173 +/- 12 g); assay type: organism-based; details: in vivo
# [12] = tested on: Rattus norvegicus; assay: Toxicity in overnight fasted albino Wistar rat assessed as body weight at 5000 mg/kg, po administered as single dose followed by fasting for 3 hrs measured on day 6 post dose (reference value: 173 +/- 12 g); assay type: organism-based; details: in vivo
# [13] = tested on: Rattus norvegicus; assay: Toxicity in overnight fasted albino Wistar rat assessed as body weight at 2000 mg/kg, po administered as single dose followed by fasting for 3 hrs measured on day 7 post dose (reference value: 175 +/- 10 g); assay type: organism-based; details: in vivo
# [14] = tested on: Rattus norvegicus; assay: Toxicity in overnight fasted albino Wistar rat assessed as body weight at 300 mg/kg, po administered as single dose followed by fasting for 3 hrs measured on day 8 post dose (reference value: 177 +/- 8 g); assay type: organism-based; details: in vivo
# [15] = tested on: Rattus norvegicus; assay: Toxicity in overnight fasted albino Wistar rat assessed as body weight at 300 mg/kg, po administered as single dose followed by fasting for 3 hrs measured on day 9 post dose (reference value: 180 +/- 12 g); assay type: organism-based; details: in vivo
# [16] = tested on: Rattus norvegicus; assay: Toxicity in overnight fasted albino Wistar rat assessed as body weight at 2000 mg/kg, po administered as single dose followed by fasting for 3 hrs measured on day 9 post dose (reference value: 180 +/- 12 g); assay type: organism-based; details: in vivo
# [17] = tested on: Rattus norvegicus; assay: Toxicity in overnight fasted albino Wistar rat assessed as body weight at 2000 mg/kg, po administered as single dose followed by fasting for 3 hrs measured on day 10 post dose (reference value: 182 +/- 15 g); assay type: organism-based; details: in vivo
# [18] = tested on: Rattus norvegicus; assay: Toxicity in overnight fasted albino Wistar rat assessed as body weight at 5000 mg/kg, po administered as single dose followed by fasting for 3 hrs measured on day 10 post dose (reference value: 182 +/- 15 g); assay type: organism-based; details: in vivo
# [19] = tested on: Rattus norvegicus; assay: Toxicity in overnight fasted albino Wistar rat assessed as body weight at 300 mg/kg, po administered as single dose followed by fasting for 3 hrs measured on day 11 post dose (reference value: 185 +/- 8 g); assay type: organism-based; details: in vivo
# [20] = tested on: Rattus norvegicus; assay: Toxicity in overnight fasted albino Wistar rat assessed as body weight at 5000 mg/kg, po administered as single dose followed by fasting for 3 hrs measured on day 12 post dose (reference value: 186 +/- 13 g); assay type: organism-based; details: in vivo
# [21] = tested on: Rattus norvegicus; assay: Toxicity in overnight fasted albino Wistar rat assessed as body weight at 5000 mg/kg, po administered as single dose followed by fasting for 3 hrs measured on day 13 post dose (reference value: 188 +/- 16 g); assay type: organism-based; details: in vivo
# [22] = tested on: Rattus norvegicus; assay: Toxicity in overnight fasted albino Wistar rat assessed as body weight at 300 mg/kg, po administered as single dose followed by fasting for 3 hrs measured on day 14 post dose (reference value: 191 +/- 18 g); assay type: organism-based; details: in vivo
# [23] = tested on: Rattus norvegicus; assay: Toxicity in overnight fasted albino Wistar rat assessed as body weight at 2000 mg/kg, po administered as single dose followed by fasting for 3 hrs measured on day 14 post dose (reference value: 191 +/- 18 g); assay type: organism-based; details: in vivo
smiles,measurement,setting,value
COC(=O)c1c(C)nc(NNC(=O)c2cccc3c(=O)c4ccccc4[nH]c23)nc1-c1ccc(OC)c(OC)c1,IC50,[1],62.9 µM
same,IC50,[2],63.5 µM
same,IC50,[3],42 µM
same,IC50,[4],12 µM
same,IC50,[5],78 µM
same,Activity,[6],183 g
same,Activity,[7],183 g
same,Activity,[8],189 g
same,Activity,[9],186 g
same,Activity,[10],187 g
same,Activity,[11],190 g
same,Activity,[12],202 g
same,Activity,[13],195 g
same,Activity,[14],192 g
same,Activity,[15],193 g
same,Activity,[16],199 g
same,Activity,[17],202 g
same,Activity,[18],215 g
same,Activity,[19],196 g
same,Activity,[20],221 g
same,Activity,[21],224 g
same,Activity,[22],208 g
same,Activity,[23],213 g
